Reference: US20180201592A1, “2-AMINO-1,3,4-THIADIAZINE AND 2-AMINO-1,3,4-OXADIAZINE BASED ANTIFUNGAL AGENTS” (F2G Limited, priority 2015, published 2018)

Columns and labels:
Conditions in all cases: banded MIC grade
[1] = tested on: Aspergillus fumigatus; experiment: Minimum inhibitory concentration, YAG medium; assay type: cell-based
Experimental: (§1) Between 1 and 5 mgs of compound were accurately weighed out into a sterile Eppendorf tube. The compound was dissolved in DMSO to give a solution containing 5 mg/mL. Tubes were stored at −20° C. until required.
(§2) On the day of testing thawed solutions were vortex mixed to ensure homogeneity. 30 μL of solution was removed and added to 570 μL of sterile water in a separate sterile Eppendorf. The thoroughly mixed solution was used to prepare a series of doubling dilutions in water, in a deep well plate. Thirteen replicate plates were prepared using a Minitrak by aspirating 20 μL from each well into eleven clear polystyrene 96 well plates.
(§3) Spores of Aspergillus spp. (Aspergillus fumigatus [two strains], Aspergillus terreus [two strains], Aspergillus niger and Aspergillus flavus) were harvested from cultures grown on Sabarauds agar for 5 days, and resuspended in PBS/Tween 80 to approx 1×10^7 cfu/mL. Each organism suspension was diluted in YAG medium (1% glucose, 1% ammonium chloride and 0.5% yeast extract) to 0.5-2×10^4cfu/mL. 80 μL of an organism suspension was added to each well of the plate containing drug dilutions.
(§4) This typically produced MIC plates with a drug range 50-0.05 mg/L and organism inocula of 1-2×10^4 cfu/mL for Aspergillus spp. All plates were incubated for 24 hrs at 35° C. Growth was assessed by monitoring the optical density at 485 nm for each well. The MIC of a compound is the lowest drug concentration that inhibits growth of an organism by >70% compared with a drug free control. MICs are recorded as mg/L. In cases where the MIC of an organism is […] the MIC is repeated using a concentration range of 0.5-0.0005 mg/L.

[2] = tested on: A. fumigatus 210; experiment: Minimum inhibitory concentration, YAG medium; assay type: cell-based, Aspergillus fumigatus
Experimental: as §1, §2, §3, §4

[3] = tested on: A. terreus 49; experiment: Minimum inhibitory concentration, YAG medium; assay type: cell-based, Aspergillus terreus
Experimental: (§5) The compound was dissolved in DMSO to give a solution containing 5 mg/mL. Tubes were stored at −20° C. until required. On the day of testing thawed solutions were vortex mixed to ensure homogeneity. 30 μL of solution was removed and added to 570 μL of sterile water in a separate sterile Eppendorf. The thoroughly mixed solution was used to prepare a series of doubling dilutions in water, in a deep well plate. Thirteen replicate plates were prepared using a Minitrak by aspirating 20 μL from each well into eleven clear polystyrene 96 well plates. Spores of Aspergillus spp. […] All plates were incubated for 24 hrs at 35° C. Growth was assessed by monitoring the optical density at 485 nm for each well. […] MICs are recorded as mg/L.

[4] = tested on: Aspergillus flavus; experiment: Minimum inhibitory concentration, YAG medium; assay type: cell-based
Experimental: as §5

[5] = tested on: Aspergillus niger; experiment: Minimum inhibitory concentration, YAG medium; assay type: cell-based
Experimental: as §5

[6] = tested on: Aspergillus terreus; experiment: Minimum inhibitory concentration, YAG medium; assay type: cell-based
Experimental: as §5

[7] = tested on: C. albicans; experiment: Minimum inhibitory concentration, RPMI medium; assay type: cell-based
Experimental: as §5, with “Assays were also performed in RPMI medium (Roswell Park Memorial Media 1640). To perform MIC tests in this medium, dilutions” for “Spores”, “compounds are prepared in microtitre plates as described above.” for “Aspergillus spp.”, “24-48” for “24”, “The following organisms were tested: […]” for “MICs are recorded as mg/L.”

[8] = tested on: C. parapsilosis; experiment: Minimum inhibitory concentration, RPMI medium; assay type: cell-based
Experimental: as §5, with “Assays were also performed in RPMI medium (Roswell Park Memorial Media 1640). To perform MIC tests in this medium, dilutions” for “Spores”, “compounds are prepared in microtitre plates as described above.” for “Aspergillus spp.”, “24-48” for “24”, “The following organisms were tested: […]” for “MICs are recorded as mg/L.”

[9] = tested on: C. tropicalis; experiment: Minimum inhibitory concentration, RPMI medium; assay type: cell-based
Experimental: as §5, with “Assays were also performed in RPMI medium (Roswell Park Memorial Media 1640). To perform MIC tests in this medium, dilutions” for “Spores”, “compounds are prepared in microtitre plates as described above.” for “Aspergillus spp.”, “24-48” for “24”, “The following organisms were tested: […]” for “MICs are recorded as mg/L.”

Row | SMILES | MIC grade, A. FUMIGATUS, YAG media [1] | MIC grade, A. FUMIGATUS 210, YAG media [2] | MIC grade, A. TERREUS 49, YAG media [3] | MIC grade, A. FLAVUS, YAG media [4] | MIC grade, A. NIGER, YAG media [5] | MIC grade, A. TERREUS, YAG media [6] | MIC grade, C. ALBICANS, RPMI media [7] | MIC grade, C. PARAPSILOSIS, RPMI media [8] | MIC grade, C. TROPICALIS, RPMI media [9]
1 | NC1=NN=C(CCCCCN2C(=O)c3ccccc3C2=O)CS1 | 4 (4: <0.2 mg/L) | 4 (4: <0.2 mg/L) | 4 (4: <0.2 mg/L) | 4 (4: <0.2 mg/L) | 4 (4: <0.2 mg/L) | 4 (4: <0.2 mg/L) | 1 (1: ≥20 mg/L) | 3 (3: 1-5 mg/L) | 1 (1: ≥20 mg/L)
2 | NC1=NN=C(CCCCc2cc3ccccc3o2)CS1 | 3 (3: 0.2-1 mg/L) | 3 (3: 0.2-1 mg/L) | 3 (3: 0.2-1 mg/L) | 4 (4: <0.2 mg/L) | 3 (3: 0.2-1 mg/L) | 4 (4: <0.2 mg/L) | 3 (3: 1-5 mg/L) | 4 (4: <1 mg/L) | 3 (3: 1-5 mg/L)
3 | COCCCCC1=NN=C(N)SC1 | 3 (3: 0.2-1 mg/L) | 4 (4: <0.2 mg/L) | 3 (3: 0.2-1 mg/L) | 3 (3: 0.2-1 mg/L) | 3 (3: 0.2-1 mg/L) | 3 (3: 0.2-1 mg/L) | 3 (3: 1-5 mg/L) | 4 (4: <1 mg/L) | 3 (3: 1-5 mg/L)
4 | NC1=NN=C(CCCCCc2ccccn2)CS1 | 3 (3: 0.2-1 mg/L) | 4 (4: <0.2 mg/L) | 4 (4: <0.2 mg/L) | 3 (3: 0.2-1 mg/L) | 4 (4: <0.2 mg/L) | 3 (3: 0.2-1 mg/L) | 2 (2: 5-20 mg/L) | 3 (3: 1-5 mg/L) | 2 (2: 5-20 mg/L)
5 | NC1=NN=C(CCCCCOc2ccc(F)cc2)CS1 | 4 (4: <0.2 mg/L) | 4 (4: <0.2 mg/L) | 4 (4: <0.2 mg/L) | 4 (4: <0.2 mg/L) | 4 (4: <0.2 mg/L) | 4 (4: <0.2 mg/L) | 4 (4: <1 mg/L) | 4 (4: <1 mg/L) | 4 (4: <1 mg/L)
6 | CN(CCCCCC1=NN=C(N)SC1)c1ccccc1 | 2 (2: 1-5 mg/L) | 2 (2: 1-5 mg/L) | 3 (3: 0.2-1 mg/L) | 3 (3: 0.2-1 mg/L) | 3 (3: 0.2-1 mg/L) | 3 (3: 0.2-1 mg/L) | 1 (1: ≥20 mg/L) | 2 (2: 5-20 mg/L) | 1 (1: ≥20 mg/L)
7 | NC1=NN=C(CCCCCOCc2ccccc2)CS1 | 4 (4: <0.2 mg/L) | 4 (4: <0.2 mg/L) | 4 (4: <0.2 mg/L) | 4 (4: <0.2 mg/L) | 3 (3: 0.2-1 mg/L) | 3 (3: 0.2-1 mg/L) | 3 (3: 1-5 mg/L) | 4 (4: <1 mg/L) | 3 (3: 1-5 mg/L)
8 | COCCCCCC1=CSC(=N)NN1C | 3 (3: 0.2-1 mg/L) | 4 (4: <0.2 mg/L) | 4 (4: <0.2 mg/L) | 4 (4: <0.2 mg/L) | 3 (3: 0.2-1 mg/L) | 3 (3: 0.2-1 mg/L) | 4 (4: <1 mg/L) | 4 (4: <1 mg/L) | 3 (3: 1-5 mg/L)
9 | COCCCCCCC1=NN=C(N)SC1 | 4 (4: <0.2 mg/L) | 4 (4: <0.2 mg/L) | 4 (4: <0.2 mg/L) | 4 (4: <0.2 mg/L) | 4 (4: <0.2 mg/L) | 4 (4: <0.2 mg/L) | 4 (4: <1 mg/L) | 4 (4: <1 mg/L) | 3 (3: 1-5 mg/L)
10 | COCCCCCCCC1=NN=C(N)SC1 | 4 (4: <0.2 mg/L) | 4 (4: <0.2 mg/L) | 4 (4: <0.2 mg/L) | 4 (4: <0.2 mg/L) | 4 (4: <0.2 mg/L) | 4 (4: <0.2 mg/L) | 4 (4: <1 mg/L) | 4 (4: <1 mg/L) | 4 (4: <1 mg/L)
11 | NC1=NN=C(CCCCCCCOc2ccccc2)CS1 | 4 (4: <0.2 mg/L) | 3 (3: 0.2-1 mg/L) | 4 (4: <0.2 mg/L) | 4 (4: <0.2 mg/L) | 4 (4: <0.2 mg/L) | 4 (4: <0.2 mg/L) | 3 (3: 1-5 mg/L) | 4 (4: <1 mg/L) | 3 (3: 1-5 mg/L)
12 | CCCCC/C=C/C1=NN=C(N)SC1 | 2 (2: 1-5 mg/L) | 2 (2: 1-5 mg/L) | 2 (2: 1-5 mg/L) | 2 (2: 1-5 mg/L) | 2 (2: 1-5 mg/L) | 2 (2: 1-5 mg/L) | 2 (2: 5-20 mg/L) | 2 (2: 5-20 mg/L) | 1 (1: ≥20 mg/L)
13 | NC1=NN=C(CCCCCC(=O)O)CS1 | 2 (2: 1-5 mg/L) | 2 (2: 1-5 mg/L) | 2 (2: 1-5 mg/L) | 2 (2: 1-5 mg/L) | 2 (2: 1-5 mg/L) | 2 (2: 1-5 mg/L) | 1 (1: ≥20 mg/L) | 1 (1: ≥20 mg/L) | 1 (1: ≥20 mg/L)
14 | CCCCOCCC1=CNN=C(N)S1 | 2 (2: 1-5 mg/L) | 2 (2: 1-5 mg/L) | 2 (2: 1-5 mg/L) | 2 (2: 1-5 mg/L) | 1 (1: ≥5 mg/L) | 2 (2: 1-5 mg/L) | 1 (1: ≥20 mg/L) | 1 (1: ≥20 mg/L) | 1 (1: ≥20 mg/L)
15 | CCOC(=O)CCCCCC1=NN=C(N)SC1 | 3 (3: 0.2-1 mg/L) | 4 (4: <0.2 mg/L) | 4 (4: <0.2 mg/L) | 4 (4: <0.2 mg/L) | 4 (4: <0.2 mg/L) | 4 (4: <0.2 mg/L) | 4 (4: <1 mg/L) | 4 (4: <1 mg/L) | 3 (3: 1-5 mg/L)
16 | CC(C)OC(=O)CC1=NN=C(N)SC1 |  |  |  |  |  |  | 1 (1: ≥20 mg/L) | 2 (2: 5-20 mg/L) | 1 (1: ≥20 mg/L)
